Paper PMC12333015, “Profiling the Impact of mGlu7/Elfn1 Protein Interactions on the Pharmacology of mGlu7 Allosteric Modulators” (ACS Chemical Neuroscience, 2025)

System: pyramidal cell to SST-IN synapses in the prefrontal cortex
Assay: Ex vivo whole-cell electrophysiology, eEPSCs recorded from SST-INs in prefrontal cortex slices
Type: cell-based, mouse
Text: Shown in Figure A are representative traces of eEPSCs recorded from SST-INs in response to 5-pulse stimulation with baseline in black, illustrating the characteristic facilitating nature of pyramidal cell (PYR) to SST-IN synapses.
Transgenic mice (both male and female) expressing tdTomato fluorescent protein in SST-INs were used in this study. They were generated by crossing female homozygous SST-Cre (Sst^tm2.1(cre)Zjh/J, Stock #: 013044, Jackson Laboratories) with male homozygous Ai9 mice (B6;Cg-Gt(Rosa)-26Sor^tm9(CAG‑tdTomato)Hze/J, Stock #: 007909, Jackson Laboratories). All animals were group housed with food and water available ad libitum, kept under a 12 h light/dark cycle with lights on from 6:00 AM to 6:00 PM, and were used for experiments during the light phase. All of the experimental procedures were approved by the Vanderbilt University Animal Care and Use committee and followed the guidelines set forth by the Guide for the Care and Use of Laboratory Animals. […] Whole cell recordings were made from visually identified, fluorescence-labeled SST-INs in layer V of PFC slices under the upright microscope. […] Excitatory postsynaptic currents (EPSCs) were recorded from layer V SST-INs at a holding potential of −80 mV and evoked by electrical stimulation (100 μs duration, applied every 15 s) through a concentric bipolar stimulating electrode placed around 100–150 μm from the recorded cell. The holding potential of −80 mV under voltage clamp is closed to the calculated reversal potential of Cl^– and thus the EPSCs recorded in the present studies had minimal GABAA-mediated component. Electrical stimulation applied near the recorded cell in the cortex presumably activates the local neurons preferentially. […] Data were analyzed using Clampfit 10 (Molecular Devices), Excel (Microsoft), and Prism (GraphPad Software), and presented as mean ± SEM. […]

O=C(Nc1ccc(Oc2ccc(Cl)cn2)c(Cl)c1)c1ccccn1 [VU0422288]
effect on eEPSC amplitude (10 μM VU0422288 alone, compared to baseline): no change in eEPSC amplitude
effect on eEPSCs of combination with L-AP4 (30 μM L-AP4 + 10 μM VU0422288, compared to L-AP4 alone): further depression of eEPSCs
